Experimental data as given in ChEMBL document CHEMBL4342417, “Design, synthesis and evaluation of novel phenothiazine derivatives as inhibitors of breast cancer stem cells” (Eur J Med Chem, 2019).
The source made the active and inactive calls. No cut-off for these calls is given here.

Columns and labels:
[1] = tested on: SUM-159-PT; assay: Antiproliferative activity against human SUM159 cells assessed as reduction in cell viability incubated for 2 days by MTT assay; assay type: functional, cell-based; conditions: 48 h
[2] = Toxicity in zebra fish assessed as survival rate at 250 uM observed for 24 hrs; set-up: species or system Danio rerio; conditions: zebrafish
[3] = tested on: SK-BR-3; assay: Antiproliferative activity against human SKBR3 cells assessed as reduction in cell viability incubated for 2 days by MTT assay; assay type: functional, cell-based; conditions: SK-BR-3, 48 h
[4] = tested on: SUM-159-PT; assay: Inhibition of mammosphere formation in human SUM159 cells assessed as reduction in number of mammosphere at 2 uM incubated for 10 days by microscopic analysis; assay type: functional
[5] = tested on: MDA-MB-231; assay: Inhibition of cell migration of human MDA-MB-231 cells at 0.40 and 0.80 uM incubated for 48 hrs by scratch wound healing assay; assay type: functional, cell-based
[6] = tested on: SUM-159-PT; assay: Inhibition of mammosphere formation in human SUM159 cells incubated for 10 days by microscopic analysis; assay type: functional, cell-based
[7] = tested on: MDA-MB-231; assay: Downregulation of NF-kappaB-p65 expression in human MDA-MB-231 cells incubated for 48 hrs by Western blot analysis; assay type: functional, cell-based
[8] = target: Transcription factor p65 (Homo sapiens) (UniProt Q04206); assay: Inhibition of LPS-stimulated NF-kappaB-p65 in human MDA-MB-231 cells at 0.40 and 0.80 uM incubated for 24 hrs by dual luciferase reporter gene assay; assay type: cell-based
[9] = tested on: MDA-MB-231; assay: Antiproliferative activity against human MDA-MB-231 cells assessed as reduction in cell viability incubated for 2 days by MTT assay; assay type: functional, cell-based; conditions: MDA-MB-231, 48 h
[10] = tested on: MCF7; assay: Inhibition of colony formation in human MCF7 cells at 0.20 uM incubated for 14 days with replacement of medium for every 3 or 4 days by crystal violet staining based visual analysis relative to control; assay type: functional
[11] = tested on: SUM-159-PT; assay: Inhibition of mammosphere formation in human SUM159 cells assessed as reduction in number of mammosphere at 0.5 uM incubated for 10 days by microscopic analysis; assay type: functional
[12] = tested on: MCF7; assay: Inhibition of colony formation in human MCF7 cells incubated for 14 days with replacement of medium for every 3 or 4 days by crystal violet staining based visual analysis; assay type: functional, cell-based
[13] = tested on: SUM-159-PT; assay: Inhibition of mammosphere formation in human SUM159 cells assessed as reduction in number of mammosphere at 1 uM incubated for 10 days by microscopic analysis; assay type: functional
[14] = tested on: KG-1a; assay: Antiproliferative activity against human KG1a cells assessed as reduction in cell viability incubated for 2 days by MTT assay; assay type: functional, cell-based; conditions: 48 h
[15] = tested on: MCF7; assay: Antiproliferative activity against human MCF7 cells assessed as reduction in cell viability incubated for 2 days by MTT assay; assay type: functional, cell-based; conditions: MCF7, 48 h

Chain of Transcription factor p65 (Homo sapiens) (Q04206 whole entry): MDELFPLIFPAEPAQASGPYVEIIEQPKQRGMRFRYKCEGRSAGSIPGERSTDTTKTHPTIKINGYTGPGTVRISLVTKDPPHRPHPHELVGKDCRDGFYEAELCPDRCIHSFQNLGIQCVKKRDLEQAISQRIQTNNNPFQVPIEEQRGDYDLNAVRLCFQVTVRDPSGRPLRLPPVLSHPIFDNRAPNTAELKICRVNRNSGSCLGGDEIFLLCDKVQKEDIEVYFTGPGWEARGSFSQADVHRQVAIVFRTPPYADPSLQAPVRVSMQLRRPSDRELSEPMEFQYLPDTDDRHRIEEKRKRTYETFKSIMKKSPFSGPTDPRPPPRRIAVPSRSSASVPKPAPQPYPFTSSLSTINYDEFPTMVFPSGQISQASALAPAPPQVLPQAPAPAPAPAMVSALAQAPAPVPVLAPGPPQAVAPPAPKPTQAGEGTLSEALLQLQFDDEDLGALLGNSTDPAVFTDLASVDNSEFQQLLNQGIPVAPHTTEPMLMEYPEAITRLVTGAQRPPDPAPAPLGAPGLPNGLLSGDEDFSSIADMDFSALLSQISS

**Q.** For `O=C(CCC(=O)N1CCN(CCCN2c3ccccc3Sc3ccccc32)CC1)OCCOc1no[n+]([O-])c1S(=O)(=O)c1ccccc1`, which IC50 [1] is on record?
**A.** 1780 nM

**Q.** And the survival at 24 h, 250 µM [2]?
**A.** 51.6%

**Q.** What about the IC50 [3] of the same compound?
**A.** 2220 nM

**Q.** And the Activity [4]?
**A.** 1

**Q.** And the inhibition [5]?
**A.** Active

**Q.** And the inhibition [6]?
**A.** Dose-dependent effect

**Q.** What about the Activity [7] of the same compound?
**A.** Dose-dependent effect

**Q.** What about the inhibition [8] of the same compound?
**A.** Active

**Q.** What about the IC50 [9] of the same compound?
**A.** 1600 nM

**Q.** And the inhibition at 0.2 µM [10]?
**A.** 10.3%

**Q.** And the Activity [11]?
**A.** 8

**Q.** What about the inhibition [12] of the same compound?
**A.** Dose-dependent effect

**Q.** And the Activity [13]?
**A.** 2

**Q.** What about the IC50 [14] of the same compound?
**A.** 1780 nM

**Q.** What about the IC50 [15] of the same compound?
**A.** 3230 nM
